Measured values reported in patent publication US11701361B2, “p110-delta inhibitors treat and prevent autoimmunity while sparing the ability to mount an immune response to exogenous immunogens” (THE REGENTS OF THE UNIVERSITY OF COLORADO, priority 2018, dated 2023).

Assays:
AKT = assay: phosphorylated signaling intermediaries after BCR stimulation: AKT; format: cell-based, mouse; conditions: all doses of inhibitor (15, 60, 490 nM), preincubation
Procedure: (§1) Cells are then washed 2× in serum free IMDM, and stimulated with 5 μg/ml of F(ab′)2 rabbit anti-mouse anti-IgG (H&L; Invitrogen) or 10 μg/ml anti-CD3-biotin (BD Biosciences)+20 μg/ml streptavidin (Sigma-Aldrich) for 2 minutes. Signaling was stopped by addition of 20% PFA to a final concentration of 2%, incubated at 37° C. for 15 minutes and resuspended in 100% ice-cold MeOH (directly from −80° C.). Cells were then placed on ice for 30 minutes and placed at −20° C. for storage. For analysis, cells were stained with B220-BV786, CD4-BV711, CD8-BV421, and/or pAKT-Alexa Fluor 647 (BD Biosciences), pPLCγ-PE (BD Biosciences), pBTK-BV421 (BD Biosciences) pSyk/Zap70-PE (BD Biosciences) at room temperature for 1 hour. Cells were washed 3 times and samples were acquired in triplicate on an LSR Fortessa X-20 (BD) with analysis using FlowJo software.

VH125.NOD mice = assay: T1D disease progression in VH125.NOD mice on idelalisib chow; format: in vivo, mouse; conditions: female VH125.NOD mice, vs vehicle control chow
Source text: Except where otherwise indicated, 6-16 week old mice were used in all experiments. Both male and female mice were used, but experiments were sex matched and both sexes gave identical results, with the exception of only female mice being used in the VH125.NOD experiments as female mice develop accelerated disease. hCD20-TamCre animals (Khalil, et al. Science 336: 1178-81) were intercrossed with mice carrying the rosa26-flox-STOP-YFP allele (Srinivas, et al., BMC Dev. Biol. 1:4), generating mice in which YFP is expressed in B cells upon Cre activation. These mice were crossed with Ars/A1 (Benschop, et al., Immunity 14: 33-43) transgenic mice to generate hCD20-TamCre×rosa26-flox-STOP-YFP×Ars/A1 mice. B cells from these mice will be referred to as WT Ars/A1. […]
Diet dose (DD) is calculated by multiplying the single daily dose (SD) by the body weight of a mouse (BW) and dividing that by the daily food intake (FI) [DD=(SD×BW)/FI]. […]
To test this possibility, immediately post-weaning, female VH125.NOD mice were placed on vehicle control chow to allow habituation to the diet. […] Disease progression was monitored based on blood glucose levels and visible signs of disease (i.e., hunching, scruffy fur, excessive urination).

BTK = assay: phosphorylated signaling intermediaries after BCR stimulation: BTK; format: cell-based, mouse; conditions: all doses of inhibitor (15, 60, 490 nM), preincubation
Procedure: as §1

## CC[C@H](Nc1ncnc2nc[nH]c12)c1nc2cccc(F)c2c(=O)n1-c1ccccc1 [idelalisib, 5-fluoro-3-phenyl-2-[(1S)-1-(7H-purin-6-ylamino)propyl]-4(3H)-quinazolinone]
AKT
  phosphorylation of AKT: significantly reduced
VH125.NOD mice; 0.9375 mg/kg idelalisib chow from pre-diabetic blood glucose readings
  disease progression (blood glucose levels and visible signs of disease): significantly delayed
VH125.NOD mice; 0.9375 mg/kg idelalisib chow
  survival: extended
BTK
  phosphorylation of BTK: significantly reduced
